Data published in PMC4349456, “Automated genomic context analysis and experimental validation platform for discovery of prokaryote transcriptional regulator functions” (BMC Genomics, 2014).

target: T1, Bxe_B3018 (MgxR); assay: fluorescence anisotropy, collapse of complex with fluorescein-labelled DNA operator; parameters: species or system Paraburkholderia xenovorans; details: apparent, from loss of DNA operator binding; 250 nM GST-Bxe_B3018, 1 nM DOS; pH 7.5, 30 °C, 1 mM MgCl2, 1 mM DTT
T1 construct: GST-tagged (N-terminal, pGEX-KG / pGEX-T2), tag kept; expressed in Arctic Express cells; GSTrap and Superdex 200 purified

CC(=O)CN [Aa, aminoacetone] and CC(=O)CN(C)C [N,N-dimethylaminoacetone] are within error of each other in Kd: 2100 ± 400 µM for the first, 2600 ± 200 µM for the second.

For CC(=O)C=O [Mgx, methylglyoxal], the Kd was 2100 ± 200 µM.
